Key:
[1] = test system: human retinal endothelial cells (HREC); assay: Testing 5: VEGF-induced HREC proliferation (MTS assay), echistatin and Avastin alone and in combination; format: cell-based
Protocol: HREC were first cultured overnight in a 96-well plate coated with fibronectin. The next day, cells were serum-starved for 2 h before treatment. Medium containing different agents as shown in table below was pre-incubated for 1 h before being added to cells. The cells were cultured at 37° C., 5% CO2, and 95% humidity for another 3 days. After that, cell proliferation was estimated by the MTS assay. […] Normal human IgG was also added to different groups in such a way that all groups contained the same amounts of IgG protein.
A 96-well plate was coated with human fibronectin (10 μg/mL) for 5 hours. HREC were collected from flasks by EDTA-trypsin treatment and re-suspended in 10% FBS CS-C medium at 15,000 cells/mL. Cells (200 μL) were added to the plate and cultured overnight at 37° C., 5% CO2, and 95% humidity. Next day, the medium was removed and 200 μl/well serum free medium was added.
All medium solutions were incubated for 1 h at 37° C. After carefully aspirating the medium from cells, […], of the medium containing the different agents was added into appropriate wells. The cells were cultured for another 3 days.
At the end of incubation, the medium was carefully aspirated from cells and 120 μl of MTS working solution was added into all wells including blank wells (without cells). The plate was incubated at 37° C., 5% CO2, and 95% humidity for 1 hour and then absorbance was read by a plate reader at 490 nm wavelength.
Median optical density (OD) was generated from different groups. Data were expressed as mean±SEM of the OD values. Statistical analysis was performed using a one or two-way ANOVA using Box-Cox transformed data if needed, and P<0.05 was considered statistically significant. […] All the data from the individual wells were fitted to a re-parameterized four-parameter logistic equation to obtain IC50 using similar methodology as that previously described and utilizing the statistical analysis software JMP (SAS Institute, Cary, N.C.).

[2] = rat, in vivo
Protocol: The anterior segment of the eye was examined using a slit-lamp biomicroscopy for excluding any animals with abnormalities that might interfere with the study. Fundus photography and fluorescein angiography (FA) were performed to document the health of the retina and the ocular circulation using a TRC 50EX fundus camera (Topcon). For FA, 10% sodium fluorescein was injected intravenously (50 mg/kg of body weight) through the tail vein or the vein under the incisor before the procedure.
Immediately after placement of laser photocoagulation, the experimental eyes received an intravitreal injection of either a compound or a vehicle as described in Table 5. Following the disinfection of ocular surface with 5% betadine and 0.9% saline solutions, the injections were performed with aid of a surgical microscope using 0.3 mL syringes with a 31-gauge ½-inch long needle (Ultra-Fine II™ Insulin syringe, BD, Franklin Lakes, N.J.).
Two weeks after photocoagulation, all rats were examined under anesthesia and pupil dilation with slit-lamp biomicroscopy, fundus photography and FA as described in the baseline examination.

Substance: bevacizumab [Avastin, reference compound]
- IC50 ± SE of Avastin alone on inhibiting VEGF-induced proliferation of HREC ([1]; VEGF 10 ng/mL, estimated): 0.021 µg/mL
- Inhibition of VEGF-induced HREC proliferation, agent alone ([1]; echistatin 2 nM, Avastin 0.625-10 ng/ml (significant at 10 ng/ml), VEGF 10 ng/mL): dose-dependent inhibition
- HREC proliferation under basal conditions ([1]; echistatin 2 nM, Avastin 0.625-10 ng/ml, no VEGF): no effect
- Intraocular inflammation and retinal vascular congestion [2]: no intraocular inflammation and retinal vascular congestion was recorded
